Laboratory results published in patent publication US20090271164A1, “PREDICTING LONG-TERM EFFICACY OF A COMPOUND IN THE TREATMENT OF PSORIASIS” (priority 2008, published 2009).
Values joined by “and” are separate entries in the source; they are usually repeats but may differ in a detail not shown here. Equal values may be shown once. Read-outs that look alike come from different tables or passages of the source.

How the values were obtained:
[1] = tested on: patients with moderate-to-severe chronic plaque psoriasis; test: Study M04-716 (CHAMPION), 16-week Phase III active- and placebo-controlled trial, PASI 75 response; type: in vivo, human; details: for PASI 75 response rate at Week 16: observed, Week 16 relative to Baseline
Method: The primary efficacy endpoint was the proportion of subjects achieving at least a 75% reduction in the Psoriasis Area and Severity Index (PASI) score (i.e., ≧PASI 75 response) at Week 16 relative to Baseline (Week 0).
Study M04-716 was a 16-week multicenter, double-blind, and double-dummy study.
PASI scores were assessed prior to the first dose of study drug (Baseline) and at Weeks 1, 2, 4, 8, 12 and 16.
Dose escalation/titration was carried out according to the efficacy and safety criteria defined in the protocol.
In addition, the subjects were candidates for systemic therapy or phototherapy.
The ADA treatment group received 40 mg every-other-week (eow) injections from Week 1, following an 80-mg initial dose. […] Dose escalation was carried out according to the efficacy and safety criteria defined in the study protocol. All study patients received injections as well as oral tablets, regardless of treatment group assignment (double-dummy design) (FIG. 5). Patient outcome was measured using a PASI 75 response: a 75% reduction (improvement) in PASI score at Week 16 compared with the baseline score.

[2] = tested on: patients with moderate-to-severe chronic plaque psoriasis; test: Population PK/PD (exposure-efficacy) modeling with NONMEM and clinical trial simulation of long-term MTX treatment; set-up: species or system human
From the text: The PK/PD model was built using a non-linear mixed-effects population modeling (NONMEM) approach with NONMEM software (double precision, Version VI) and a NMTRAN pre-processor. Models were compiled using the Intel Visual Fortran compiler (Version 9) on a dual processor workstation (DELL Precision 530) under the Windows 2000 (Service pack 4) operating system.
All 110 MTX-treated subjects in Study M04-716 were included in the population PK/PD analysis.
All the observed PASI scores over the 16-week period in MTX-treated subjects in Study M04-716 were used.
The amount in the central compartment was scaled by the apparent volume of distribution (V/F).
All subjects were assumed to have the typical PK parameter values (i.e., intersubject and intrasubject variabilities were set to zero).
Several PD models were examined. The first model is an indirect response model with an inhibitory effect (Imax and IC50) of Ce (concentration at an effect compartment) on Kin. Kin is the ‘synthesis rate’ into a compartment where PASI scores reside in. The 2nd model examined was similar to the final PD model (see below), except that the rate into the 3rd compartment is Kin·(Emax/(1+EC50/Cp)), rather than Kin·Cp.
The final PD model is a two-step indirect model (as shown below). […] In this model, Compartments 3 and 4 were added as delay/modulator compartments for triggering the observed PASI response.
Kin and Kout are the rate constants into and out of Compartment 3. […] Kout was set equal to Kin. K40 is the rate constant out of Compartment 4, and it controls the persistence of PASI response. PASI is the predicted PASI score, which equals to the baseline PASI score divided by a factor great than one, and the parameter ‘GAM’ influences the steepness of the functional relationship.
For the PD modeling, exponential error models were used to describe the inter-individual errors on the PD parameters Kin and K40.
The evaluation criteria used to select an appropriate PK/PD model are described below: • 1. […] The OFV is equal to −2 times the maximum logarithm of the likelihood of the data (−2LL). Non-hierarchical models are compared based on the AKAIKE criterion. • 2. The observed and predicted PASI scores from a preferred model were more randomly distributed across the line of unity (a straight line with zero intercept and a slope of one) than those from alternative model(s). • 3.
The first-order conditional estimation (FOCE) with INTERACTION method was employed within NONMEM, and a diagonal structure of the n matrix was assumed.
The final population PK/PD model was validated using a bootstrap method (random resampling with replacement). […]

[3] = cited from earlier work
[4] = two-step indirect response model, Run 18
[5] = fixed in the PK model, from the literature

calculated Tmax ([2]; with CL/F = 3 L/day/kg, V/F = 0.6 L/kg, Ka = 10 day^−1)	Compound	PASI75 Response Rate (90% CI) Actual (NRI) ([1]; Week 1)	PASI75 Response Rate (90% CI) Actual (NRI) ([1]; Week 2)	PASI75 Response Rate (90% CI) Actual (NRI) ([1]; Week 4)	PASI75 Response Rate (90% CI) Actual (NRI) ([1]; Week 8)	PASI75 Response Rate (90% CI) Actual (NRI) ([1]; Week 16)	PASI 75 response rate at Week 16 [1]	simulated PASI 75 response rate at Week 52 greater than that at Week 16 ([2]; difference Week 52 vs Week 16)	K40 = THETA (2), estimate, final PD model [2, 4]	Kin = THETA (1), estimate, final PD model [2, 4]	V/F (apparent volume of distribution), values in the literature ([3]; RA)	CL/F (apparent clearance), value used in NONMEM [3, 5]	Ka (first-order absorption rate constant), value used in NONMEM [3, 5]	V/F (apparent volume of distribution), value used in NONMEM [3, 5]	half-life ([3]; in vivo)	Tmax, values in the literature ([3]; leukemic pediatric patients)	Vss (volume of distribution at steady state), values in the literature ([3]; patient population unspecified)	CL/F (apparent clearance), values in the literature ([3]; patients with psoriasis)	Tmax, values in the literature ([3]; patients with psoriasis)	CL/F (apparent clearance), values in the literature ([3]; patients with rheumatoid arthritis (RA))
Tmax would be 3.3 hrs,	CN(Cc1cnc2nc(N)nc(N)c2n1)c1ccc(C(=O)N[C@@H](CCC(=O)O)C(=O)O)cc1 [MTX, methotrexate]	0.0 (0.1, 3.2)	0.0 (0.1, 3.2)	2.7 (0.8, 7.2)	9.1 (5.2, 15.2)	35.5 (28.0, 43.7)	35.5%	approximately 12%	0.0203 day⁻¹	3.83 day⁻¹	0.55 L/kg in RA.^2	0.12 L/h/kg	10 day⁻¹	0.6 L/kg	2 to 3 h	Tmax = 0.67-4 hrs in leukemic pediatric patients.^3	0.4-0.8 L/kg (Vss).^3	12.4 L/h and 10.8 L/h and 11.5 L/h	Tmax = 2 hrs in patients with psoriasis.	2.1 mL/min/kg in patients with rheumatoid
–	adalimumab	–	–	–	–	–	79.6%	–	–	–	–	–	–	–	–	–	–	–	–	–
